Laboratory results published in patent US8372967B2, “Compounds and methods for modulating expression of GCCR” (Isis Pharmaceuticals, Inc., priority 2006, dated 2013).
Strand notation (5' to 3'): a small letter for the sugar, then the base; units joined by * are phosphorothioate-linked, units joined directly phosphodiester-linked; [ ] holds rarer units or linkages, { } end groups; capitals alone tell only the bases. e = 2'-O-(2-methoxyethyl) (MOE); [5mC] = 5-methylcytosine; d = 2'-deoxy (DNA)

Assay: Triglyceride, cholesterol and glucose levels, pre-bleed and post-bleed, GCGR study (Table 34)
Assay type: in vivo, mouse
Set-up: Triglyceride (TRIG) Pre-Bleed / Triglyceride (TRIG) Post-Bleed / Cholesterol (CHOL) Pre-Bleed / Cholesterol (CHOL) Post-Bleed / Glucose Pre-Bleed / Glucose Post-Bleed: unit not given here
Details: for Cholesterol (CHOL) Pre-Bleed / Triglyceride (TRIG) Pre-Bleed: pre-treatment bleed; for Cholesterol (CHOL) Post-Bleed / Triglyceride (TRIG) Post-Bleed: post-treatment bleed
Method: Eight-week old male C57/BL6 mice (Jackson Laboratory, Bar Harbor, Me.) were administered a single dose of GCGR oligonucleotide by intraperitoneal injection at a concentration of […]. Each dose group consisted of four animals. Shown in Table 31 are the sequences, motifs and conjugates of the GCGR antisense compounds used in this study. Bolded residues indicate 2′-O-methoxyethyl (2′-MOE) moieties. All compounds comprise phosphorothioate internucleoside linkages throughout and each cytosine is replaced with 5-methylcytosine. ISIS 386626, ISIS 386627 and ISIS 386628 further comprise a C16 conjugate group attached to the 2′-O position of the sugar via a diamide linkage (2′-OCH2C(═O)N(H)(CH2)4N(H)C(═O)—(CH2)15CH3). GCGR antisense compounds target published GCGR sequences, including Genbank® Accession No. BC031885.1 (SEQ ID NO: 7).
Mice were sacrificed 48 hours following injection to determine serum transaminase levels (Table 32); liver, white adipose tissue (WAT), spleen and kidney weight (Table 33); cholesterol, triglyceride and glucose levels (Table 34); GCGR mRNA levels (Tables 35-41); and full-length and total oligonucleotide concentration in liver and kidney (Table 42). Endpoints were assessed using methods described herein and well known to those of ordinary skill in the art. Data is included from a pre-treatment bleed (Pre-Bleed) and post-treatment bleed (Post-Bleed).

For “148364 (antisense eT*eG*e[5mC]*eA*e[5mC]*dT*dT*dT*dG*dT*dG*dG*dT*dA*d[5mC]*e[5mC]*eA*eA*eG*eG) [compound 148364]”, the “Cholesterol (CHOL) Pre-Bleed” value (6.25 mg/kg group) was 86, the “Triglyceride (TRIG) Pre-Bleed” value (6.25 mg/kg group) was 86 and the “Cholesterol (CHOL) Post-Bleed” value (6.25 mg/kg single i.p.) was 89. The “Triglyceride (TRIG) Post-Bleed” value (6.25 mg/kg single i.p.) was 162, the “Cholesterol (CHOL) Pre-Bleed” value (12.5 mg/kg group) was 85 and the “Triglyceride (TRIG) Pre-Bleed” value (12.5 mg/kg group) was 106. For the same substance, the “Cholesterol (CHOL) Post-Bleed” value (12.5 mg/kg single i.p.) was 89, the “Triglyceride (TRIG) Post-Bleed” value (12.5 mg/kg single i.p.) was 179 and the “Cholesterol (CHOL) Pre-Bleed” value (25 mg/kg group) was 83. The “Triglyceride (TRIG) Pre-Bleed” value (25 mg/kg group) was 115, the “Cholesterol (CHOL) Post-Bleed” value (25 mg/kg single i.p.) was 96 and the “Triglyceride (TRIG) Post-Bleed” value (25 mg/kg single i.p.) was 200. For the same substance, the “Cholesterol (CHOL) Pre-Bleed” value (50 mg/kg group) was 81, the “Triglyceride (TRIG) Pre-Bleed” value (50 mg/kg group) was 110 and the “Cholesterol (CHOL) Post-Bleed” value (50 mg/kg single i.p.) was 94. The “Triglyceride (TRIG) Post-Bleed” value (50 mg/kg single i.p.) was 177.
